Results taken from ChEMBL document CHEMBL1155766, “Secondary metabolites from the roots of Astragalus zahlbruckneri” (J Nat Prod, 2001).
Active and inactive are the calls of the source. The calls are words filed in the database; no cut-off is given here.

Biological target: T1, Sex hormone-binding globulin (Homo sapiens) (UniProt P04278)
T1 sequence (whole entry): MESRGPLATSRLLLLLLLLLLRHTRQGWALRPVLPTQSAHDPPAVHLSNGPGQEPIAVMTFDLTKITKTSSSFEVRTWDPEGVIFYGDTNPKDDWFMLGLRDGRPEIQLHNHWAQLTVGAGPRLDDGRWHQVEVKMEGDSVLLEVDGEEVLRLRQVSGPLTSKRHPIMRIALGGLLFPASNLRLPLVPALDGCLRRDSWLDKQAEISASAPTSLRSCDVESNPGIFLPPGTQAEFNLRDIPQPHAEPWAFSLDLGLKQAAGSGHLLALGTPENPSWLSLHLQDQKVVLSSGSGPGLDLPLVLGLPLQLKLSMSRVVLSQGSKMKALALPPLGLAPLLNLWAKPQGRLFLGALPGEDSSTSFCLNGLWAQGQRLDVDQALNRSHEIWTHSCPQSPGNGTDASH
Test: Binding affinity to human sex hormone binding globulin

## COc1cc([C@@H]2O[C@@H](c3ccc(O)c(OC)c3)[C@H](CO)[C@H]2CO)ccc1O
  Activity: Active
